Laboratory results as given in patent US20050136121A1, “Oral peptide delivery system with improved bioavailability” (SHEAR/KERSHMAN LABORATORIES, INC., priority 2003, published 2005).

Experiment: Study 2: female adult dogs fed formulations or injected with Humulin, serum glucose level
Assay type: in vivo
Procedure: Female adult dogs were fed the formulations from Examples 3 to 5. Further dogs were injected with Humulin and given 0.05 mL of 100 U/mL. Before being fed or injected the formulations, the animals fasted overnight. The dogs were fed 4 to 6 hours after dosing.

For “Humulin: injected insulin comparator, 0.05 mL of 100 U/mL”, the “time after dosing at which glucose level began increasing” value (injected 0.05 mL of 100 U/mL) was “about 2 hours”, the “drop in glucose levels” value (injected 0.05 mL of 100 U/mL, within minutes) was 67% and the “time at which glucose levels returned to normal levels” value (injected, after eating) was “about 12 hours”. For the same substance, the “glucose levels at hours 6 to 10” value (injected, ate dog food at 4 to 6 hours) was “above the normal levels”.
